Assay [1] concerns IDH mutant cells. Description: NK cytotoxicity assay (CFSE/7-AAD flow cytometry) on ATRA-treated glioma cells. The class given is cell-based, human. As for the experimental part:
All-trans Retinoic acid (ATRA) treatment of astrocytes and primary glioma cells. ATRA was purchased from Sigma Aldrich® and reconstituted in DMSO. ATRA was added at a 1 μM final concentration to cell culture medium for 48 hours. After treatment, the cells either lysed in Trizol™ for qPCR analysis, or were used in NK cytotoxicity assays.
NK-92 cell culture. For some experiments, NK92 cells were used instead of donor NK cells. NK92 cells (ATCC® CRL-2407™) were obtained from ATCC. […] Fresh medium was added every 2-3 days and once a week, the cells were counted and re-suspended at a final concentration of 5×10^5 cells/mL in fresh medium.
NK cytotoxicity assay. […] After 6 h incubation, the cells were stained with 0.25 μg/ml of 7-AAD and analyzed by flow cytometry.
ATRA induced increased cytotoxic killing of IDH mutant cells in an NKG2D-ligand dependent manner. The ability of ATRA to sensitize IDH mutant cells to killing by NK cells was evaluated. For this purpose, IDH mutant and WT cells were treated with 1 μM ATRA for 48 hours and assessed for killing by NK-92 cells (ATCC) at a 10:1 E:T ratio. […] ATRA-treated cells were also evaluated for expression of NKG2D ligands.

For assay [2], the system named is IDH mutant cells from primary gliomas. Description: Gene microarray (Clariom S) and pathway analysis. In kind it is cell-based, human. As for the experimental part: To evaluate overall gene expression changes and to decipher pathway activation in IDH mutants after ATRA treatment, a gene microarray was performed. IDH wt and mutant cells from primary gliomas were treated with 1 μM ATRA for 48 hours and RNA was extracted from the cells. Microarray analysis was performed using Clariom S microarray chips.

The subject of assay [3] is IDH mutant chondrosarcoma cells (HT-1080 and SW 1353). Description: NK killing of chondrosarcoma cells. The class given is cell-based. The settings on record: different doses of ATRA, 48 hours; at least two chondrosarcoma cell lines. As for the experimental part: IDH WT chondrosarcoma cells and IDH mutant chondrosarcoma cells were treated with different doses of ATRA or DMSO for 48 hours and were evaluated for killing by NK cells (FIG. 11F). NK cytotoxicity on IDH WT chondrosarcoma cells and IDH mutant chondrosarcoma cells was evaluated.

Assay [4] deals with IDH mutant (HT-1080, R132C IDH1 mutation) chondrosarcoma cells. Description: Viability and apoptosis of chondrosarcoma cells. In kind it is cell-based. To be noted: 48 hours. How it is done: IDH mutant (HT-1080, R132C IDH1 mutation) chondrosarcoma cells were treated with different doses of ATRA or DMSO for 48 hours. After treatment, cells were evaluated for viability (FIG. 11A) and apoptosis by caspase activity (FIG. 11B). […] Additionally, IDH WT cells and IDH mutant chondrosarcoma cells were treated with different doses of ATRA or DMSO for 48 hours.

Assay [5] concerns IDH mutant tumors. Description: Comparison of RA isoforms in tumor-bearing mice. The class given is in vivo. The text has this:
Mice. […] DMSO-treated mice were used as controls.
Therefore, the efficacy of two other RA isoforms were compared with ATRA in IDH mutant gliomas. […] However, treatment of IDH mutant tumors with all three retinoic acid isoforms reduced tumor size (the bottom 3 data lines at Day 40 having endpoints below 100 mm^2). […] The changes in tumor microenvironment induced by ATRA differed from the other RA isoforms as well.

Assay [6] has as its system IDH MUT (IDH1 R132H) tumors. Description: CCL2 neutralization in ATRA-treated tumor-bearing mice. In kind it is in vivo. The settings on record: 10 mg/kg ATRA every alternate day, 1 μg anti-CCL2 neutralizing antibody. How it is done:
IDH WT and MUT (IDH1 R132H) tumor-bearing mice were treated with 10 mg/kg ATRA every alternate day starting on day 18 after tumor inoculation. Mice were also injected with 1 μg anti-CCL2 neutralizing antibody (or anti isotype antibody) on the 1st day of ATRA treatment.

Assay [7] relates to ATRA-treated IDH mutant cells. Description: Transwell chemotaxis assay of immune cell subsets. The class given is cell-based, human. As for the experimental part:
ATRA increases chemotaxis towards IDH mutant cells in a CCL2-dependent manner. […] To confirm these findings, chemotaxis assays were performed in vitro. ATRA-treated IDH mutant or WT cells were plated in the bottom well of a transwell. Different immune cell subsets (as indicated) were placed in the top chamber at a 10:1 E:T ratio. After 48 hours, cells from the bottom chamber were harvested and analyzed by flow cytometry. […] To evaluate the mechanisms of changes in chemotaxis induced by ATRA, a chemokine array was performed. Supernatants from ATRA- (or DMSO)-treated WT and IDH mutant cultures were used to assess changes in chemokine expression using a chemokine array kit (R&D systems). Results were interpreted visually as well as quantified using an imaging software (ImageJ). […] To substantiate the role of CCL2 in NK and T cell chemotaxis, transwell assays were repeated as described earlier, in the presence of CCL2-blocking antibody (R&D systems).

Assay [8] deals with ATRA-treated IDH mutant tumors. Description: Ex vivo NK killing of resected tumors. In kind it is cell-based, mice. The settings on record: vs DMSO-treated control tumors. How it is done:
ATRA promotes tumor stasis in IDH mutant tumor-bearing mice. To determine the value of ATRA as a therapeutic modality, its anti-tumor efficacy in vivo was evaluated. Athymic nude mice were implanted with 10^6 IDH mutant or WT primary glioma cells in the flank. 21 days after tumor inoculation (when tumors were about 25 mm^2), 10 mg/kg ATRA was administered every other day for 21 days. Tumors were measured every 3 days. […] Resected tumors from ATRA or DMSO-treated mice were digested to obtain single cell suspensions and assessed for killing by human and mouse NK cells ex vivo.

[9] abbreviates: towards ATRA-treated IDH mutant cells vs DMSO-treated controls, 48 hours.
The mark [10] stands for this setting: towards ATRA-treated IDH mutant cells, 48 hours.

Entries after “also recorded” stand apart in the source; their conditions may differ.

Consider `CC1=C(/C=C/C(C)=C/C=C/C(C)=C/C(=O)O)C(C)(C)CCC1` [ATRA, all-trans retinoic acid], for which the “killing by NK cells incubated with NKG2D blocking antibody” value in assay [1] (ATRA-treated IDH mutant cells) was “failed to recognize and kill ATRA-treated IDH mutant cells, reducing killing to baseline levels”. Besides, the “killing by NK-92 cells” value in assay [1] (IDH mutant cells, 1 μM ATRA 48 hours, 10:1 E:T ratio, vs DMSO-treated controls) is “significantly more susceptible to killing by NK-92 cells”. Also, in assay [2] (1 μM ATRA 48 hours (data not shown)), the “gene expression of inflammatory chemokines CXCL1, CXCL9 and CXCL10” value was “upregulated the gene expression of multiple inflammatory chemokines”. The “pathway analysis of upregulated genes” value in assay [2] (IDH mutant cells, 1 μM ATRA 48 hours) is listed as “immune cell chemotaxis was one of the most upregulated pathways”. Moreover, the NK-mediated cell killing result in assay [3] is recorded as “increased NK-mediated cell killing of IDH mutant chondrosarcoma cells”. Besides, in assay [4] (HT-1080, different doses), the “apoptosis by caspase activity” value is given as “induced apoptotic cell death” and the cell viability result is reported as “decreased cell viability”. For the same molecule, in assay [4] (IDH WT and IDH mutant chondrosarcoma cells, different doses), the “7-AAD levels (flow cytometry)” value is “increased 7-AAD levels corresponding to increased apoptotic cell death in a dose-dependent manner”. The “efficacy at retarding IDH mutant tumor growth compared among RA isoforms” value in assay [5] (ATRA vs 13-cis RA and bexarotene) was “significantly more effective at retarding IDH mutant tumor growth in vivo; also recorded: the most effective RA isoform in terms of tumor growth”. Besides, the “tumor microenvironment immune cells” value in assay [5] (after ATRA treatment, compared with 13-cis RA and bexarotene) is “lower MDSCs and monocytes, and higher DCs and macrophages”. The “gene expression levels of ULBP3 ex vivo” value in assay [5] (compared with 13-cis RA and bexarotene) is given as “higher gene expression levels of ULBP3”. For the same molecule, in assay [5] (ex vivo co-culture with human NKs, compared among RA isoforms), the “killing of IDH mutant cells by NK cells” value is “significantly increased killing of IDH mutant cells by NK cells; also recorded: highest level of NK-mediated killing”. Also, the “tumor stasis with CCL2 blockade” value in assay [6] is given as “CCL2 blockade reversed ATRA-mediated tumor stasis”. Besides, in assay [7] (ATRA-treated IDH mutant cells), the “NK and T cell migration in the presence of CCL2-blocking antibody” value is “reversed the increased NK (FIG. 6M) and T cell (FIG. 6N) migration”; the “migration of Tregs in the presence of CCL2-blocking antibody” value is recorded as “did not impact the migration of Tregs”. For the same molecule, in assay [7] (setting [9]), the “migration of CD8+ T cells” value is “increased migration”, the “migration of M1 macrophages” value is on record as “increased migration” and the “migration of NK cells” value is on record as “increased migration”. In assay [7] (setting [10]), the “migration of M2 macrophages” value was “decreased migration”, the “migration of Monocytes” value was “decreased migration” and the “migration of Tregs” value is given as “decreased migration”. Also, in assay [8], the “ex vivo killing by human natural killer cells” value is reported as “more susceptible to killing” and the “ex vivo killing by mouse natural killer cells” value is given as “more susceptible to killing”.
